According to patent US8178506B2, “Oligomeric compounds and compositions for use in modulation of small non-coding RNAs” (Regulus Therapeutics Inc., priority 2003, dated 2012):
In the oligonucleotide strings, read from the 5' end, every base follows the letter of its sugar. An asterisk marks phosphorothioate; unmarked linkages are phosphodiester. Other units and linkages are bracketed, terminal groups are in braces. A string of capitals states the bases alone. e = 2'-O-(2-methoxyethyl) (MOE); [5mC] = 5-methylcytosine; d = 2'-deoxy (DNA)

Assays:
[1] = tested on: preadipocytes / differentiating adipocytes; experiment: Adipocyte differentiation assay, markers taken together; assay type: cell-based, human; conditions: for expression of the adipocyte differentiation markers, compounds targeting mir-143 miRNA or pri-miRNA compared: preadipocytes (Table 20); for expression levels of markers of adipocyte differentiation (TG, leptin, aP2, HSL, Glut4, PPARγ): preadipocytes, 250 nM, day nine post-transfection, relative to ISIS-29848
[2] = tested on: differentiated adipocytes; experiment: Hallmark genes and triglycerides in differentiated adipocytes; assay type: cell-based, human; conditions: Table 28; differentiated adipocytes transfected day nine post-differentiation; 250 nM oligonucleotide
Excerpt: The effect of the oligomeric compounds of the present invention targeting miRNAs on the expression of markers of cellular differentiation was examined in differentiated adipocytes.
As previously described, the HSL, aP2, Glut4, and PPARγ genes play important rolls in the uptake of glucose and the metabolism and utilization of fats. Also as previously described, an increase in triglyceride content is another well-established marker for adipocyte differentiation. Human white preadipocytes (Zen-Bio Inc., Research Triangle Park, N.C.) were grown in preadipocyte media (ZenBio Inc.). After the cells reached confluence (approximately three days), they were exposed to differentiation media (Zen-Bio, Inc.) containing a PPAR-γ agonist, IBMX, dexamethasone, and insulin for three days. Cells were then fed Adipocyte Medium (Zen-Bio, Inc.), which was replaced at 2 to 3 day intervals. One day before transfection, 96-well plates were seeded with 3000 cells/well. Cells were then transfected on day nine post-differentiation, according to standard published procedures with 250 nM oligonucleotide in LIPOFECTIN™ (Invitrogen Corporation, Carlsbad, Calif.) (Monia et al., J. Biol. Chem. 1993 268(19):14514-22). Oligomeric compounds were tested in triplicate on each 96-well plate, and the effect of TNF-α, known to inhibit adipocyte differentiation, was also measured in triplicate. Oligomeric compound treatments and transfectant-only negative controls may be measured up to six times per plate. On day twelve post-differentiation, cells were washed and lysed at room temperature, and the expression of the four hallmark genes, HSL, aP2, Glut4, and PPARγ, as well as triglyceride (TG) accumulation were measured in adipocytes transfected with the uniform 2′-MOE phosphorothioate (PS) previously described in Example 13 as well as the chimeric gapmer oligomeric compounds targeting the mir-143 miRNA and the mir-143 pri-miRNA described in Example 16. On day twelve post-differentiation, cells were lysed in a guanadinium-containing buffer and total RNA was harvested. The amount of total RNA in each sample was determined using a Ribogreen Assay (Molecular Probes, Eugene, Oreg.). Real-time PCR was performed on the total RNA using primer/probe sets for the adipocyte differentiation hallmark genes Glut4, HSL, aP2, and PPARγ. Triglyceride levels as well as mRNA levels for each of the four adipocyte differentiation hallmark genes are expressed relative to control levels (control=treatment with ISIS-29848 (SEQ ID NO: 737)).

Substance: TGAGCTACAGTGCTTCATCTCA [ISIS 340927] (chemistry not given here) [5-10-7 2′-MOE gapmer PS; targets mature mir-143]
- expression of the adipocyte differentiation markers, compounds targeting mir-143 miRNA or pri-miRNA compared ([1]; listed as ISIS 340972): reduced expression of the adipocyte differentiation markers

Substance: TGAGCTACAGTGCTTCATCTCA [ISIS 327901] (chemistry not given here) [uniform 2′-MOE PS; targets mir-143]
- expression of all five markers of differentiation, dose response ([1]; differentiating adipocytes, 50, 100, 200 and 300 nM, 24 hours): dose responsive reduction of expression of all five markers of differentiation
- expression of the adipocyte differentiation markers, compounds targeting mir-143 miRNA or pri-miRNA compared [1]: more effective
- expression levels of markers of adipocyte differentiation (TG, leptin, aP2, HSL, Glut4, PPARγ) [1]: significantly reduce the expression levels of 5 of 6 markers of adipocyte differentiation

Substance: 327901 (antisense eT*eG*eA*eG*e[5mC]*eT*eA*e[5mC]*eA*eG*eT*eG*e[5mC]*eT*eT*e[5mC]*eA*eT*e[5mC]*eT*e[5mC]*eA) [compound 327901]
- Glut4 [2]: 2.20
- HSL [2]: 1.47
- PPAR gamma [2]: 1.34
- TG [2]: 1.12
- aP2 [2]: 1.28

Substance: 327878 (antisense e[5mC]*eT*eA*eG*eT*eG*eG*eT*e[5mC]*e[5mC]*eT*eA*eA*eA*e[5mC]*eA*eT*eT*eT*e[5mC]*eA*e[5mC]) [compound 327878]
- Glut4 [2]: 0.17
- HSL [2]: 0.19
- PPAR gamma [2]: 0.85
- TG [2]: 1.08
- aP2 [2]: 0.13

Substance: 327889 (antisense eG*eT*eG*eG*eT*eA*eA*eT*e[5mC]*e[5mC]*e[5mC]*eT*eG*eG*e[5mC]*eA*eA*eT*eG*eT*eG*eA*eT) [compound 327889]
- Glut4 [2]: 0.99
- HSL [2]: 0.77
- PPAR gamma [2]: 1.63
- TG [2]: 1.09
- aP2 [2]: 1.12

Substance: 327933 (antisense eA*eA*eG*eG*eG*eA*eT*eT*e[5mC]*e[5mC]*eT*eG*eG*eG*eA*eA*eA*eA*e[5mC]*eT*eG*eG*eA*e[5mC]) [compound 327933]
- Glut4 [2]: 2.12
- HSL [2]: 1.30
- PPAR gamma [2]: 1.60
- TG [2]: 1.63
- aP2 [2]: 1.58

Substance: ACTTTCGGTTATCTAGCTTTA [ISIS 327892] (chemistry not given here) [uniform 2′-MOE PS; targets mir-131-2/mir-9]
- expression levels of markers of adipocyte differentiation (TG, leptin, aP2, HSL, Glut4, PPARγ) [1]: significantly reduce the expression levels of 5 of 6 markers of adipocyte differentiation

Substance: 327876 (antisense eA*eA*e[5mC]*eA*e[5mC]*eT*eG*eA*eT*eT*eT*e[5mC]*eA*eA*eA*eT*eG*eG*eT*eG*e[5mC]*eT*eA) [compound 327876]
- Glut4 [2]: 3.53
- HSL [2]: 0.81
- PPAR gamma [2]: 1.28
- TG [2]: 1.16
- aP2 [2]: 0.67

Substance: 327892 (antisense eA*e[5mC]*eT*eT*eT*e[5mC]*eG*eG*eT*eT*eA*eT*e[5mC]*eT*eA*eG*e[5mC]*eT*eT*eT*eA) [compound 327892]
- Glut4 [2]: 0.42
- HSL [2]: 0.62
- PPAR gamma [2]: 1.01
- TG [2]: 1.23
- aP2 [2]: 0.81

Substance: 327890 (antisense eA*eG*e[5mC]*eA*e[5mC]*eA*eA*eA*e[5mC]*eT*eA*e[5mC]*eT*eA*e[5mC]*e[5mC]*eT*e[5mC]*eA) [compound 327890]
- Glut4 [2]: 0.37
- HSL [2]: 0.42
- PPAR gamma [2]: 1.05
- TG [2]: 1.13
- aP2 [2]: 0.35

Substance: 340927 (antisense eT*eG*eA*eG*e[5mC]*dT*dA*d[5mC]*dA*dG*dT*dG*d[5mC]*dT*dT*e[5mC]*eA*eT*e[5mC]*eT*e[5mC]*eA) [compound 340927]
- Glut4 [2]: 0.96
- HSL [2]: 0.64
- PPAR gamma [2]: 1.21
- TG [2]: 1.61
- aP2 [2]: 0.71

Substance: 327922 (antisense eT*e[5mC]*eA*eG*eT*eT*eT*eT*eG*e[5mC]*eA*eT*eG*eG*eA*eT*eT*eT*eG*e[5mC]*eA*e[5mC]*eA) [compound 327922]
- Glut4 [2]: 0.61
- HSL [2]: 1.01
- PPAR gamma [2]: 0.99
- TG [2]: 1.48
- aP2 [2]: 0.91

Substance: 327925 (antisense eT*eA*eG*e[5mC]*eT*eG*eG*eT*eT*eG*eA*eA*eG*eG*eG*eG*eA*e[5mC]*e[5mC]*eA*eA) [compound 327925]
- Glut4 [2]: 0.74
- HSL [2]: 1.20
- PPAR gamma [2]: 1.30
- TG [2]: 1.33
- aP2 [2]: 0.78

Substance: 327905 (antisense e[5mC]*eA*eG*eA*e[5mC]*eT*e[5mC]*e[5mC]*eG*eG*eT*eG*eG*eA*eA*eT*eG*eA*eA*eG*eG*eA) [compound 327905]
- Glut4 [2]: 0.58
- HSL [2]: 0.65
- PPAR gamma [2]: 1.31
- TG [2]: 1.18
- aP2 [2]: 0.85

Substance: 327919 (antisense eG*eA*eA*eA*e[5mC]*e[5mC]*e[5mC]*eA*eG*e[5mC]*eA*eG*eA*e[5mC]*eA*eA*eT*eG*eT*eA*eG*e[5mC]*eT) [compound 327919]
- Glut4 [2]: 1.82
- HSL [2]: 0.83
- PPAR gamma [2]: 1.80
- TG [2]: 1.15
- aP2 [2]: 1.20

Substance: 327888 (antisense eA*eA*eT*eG*e[5mC]*e[5mC]*e[5mC]*e[5mC]*eT*eA*eA*eA*eA*eA*eT*e[5mC]*e[5mC]*eT*eT*eA*eT) [compound 327888]
- Glut4 [2]: 0.56
- HSL [2]: 0.84
- PPAR gamma [2]: 1.69
- TG [2]: 1.13
- aP2 [2]: 0.73

Substance: 338664 (antisense e[5mC]*eA*eG*eA*e[5mC]*eT*e[5mC]*e[5mC]*e[5mC]*eA*eA*e[5mC]*eT*eG*eA*e[5mC]*e[5mC]*eA*eG*eA) [compound 338664]
- Glut4 [2]: 1.08
- HSL [2]: 1.01
- PPAR gamma [2]: 1.06
- TG [2]: 1.72
- aP2 [2]: 0.77

Substance: 327913 (antisense eA*eA*e[5mC]*e[5mC]*eG*eA*eT*eT*eT*e[5mC]*eA*eA*eA*eT*eG*eG*eT*eG*e[5mC]*eT*eA*eG) [compound 327913]
- Glut4 [2]: 1.52
- HSL [2]: 1.09
- PPAR gamma [2]: 1.29
- TG [2]: 1.12
- aP2 [2]: 1.05

Substance: 327954 (antisense eA*e[5mC]*eA*eA*eA*eG*eT*eT*e[5mC]*eT*eG*eT*eG*eA*eT*eG*e[5mC]*eA*e[5mC]*eT*eG*eA) [compound 327954]
- Glut4 [2]: 0.61
- HSL [2]: 1.35
- PPAR gamma [2]: 1.46
- TG [2]: 1.46
- aP2 [2]: 1.23

Substance: 328382 (e[5mC]*eA*eG*eA*e[5mC]*dT*d[5mC]*d[5mC]*d[5mC]*dA*dA*d[5mC]*dT*dG*dA*e[5mC]*e[5mC]*eA*eG*eA) [compound 328382]
- Glut4 [2]: 0.75
- HSL [2]: 0.53
- PPAR gamma [2]: 0.97
- TG [2]: 1.33
- aP2 [2]: 0.92

Substance: 327880 (antisense eA*e[5mC]*eA*eA*eA*eT*eT*e[5mC]*eG*eG*eT*eT*e[5mC]*eT*eA*e[5mC]*eA*eG*eG*eG*eT*eA) [compound 327880]
- Glut4 [2]: 0.76
- HSL [2]: 0.93
- PPAR gamma [2]: 1.86
- TG [2]: 1.12
- aP2 [2]: 1.14

Substance: 327903 (antisense eA*eA*e[5mC]*eT*eA*eT*eA*e[5mC]*eA*eA*e[5mC]*e[5mC]*eT*eA*e[5mC]*eT*eA*e[5mC]*e[5mC]*eT*e[5mC]*eA) [compound 327903]
- Glut4 [2]: 0.36
- HSL [2]: 0.53
- PPAR gamma [2]: 0.91
- TG [2]: 1.12
- aP2 [2]: 0.56

Substance: 327941 (antisense eA*eA*e[5mC]*e[5mC]*e[5mC]*eA*e[5mC]*e[5mC]*eG*eA*e[5mC]*eA*eG*e[5mC]*eA*eA*eT*eG*eA*eA*eT*eG*eT*eT) [compound 327941]
- Glut4 [2]: 0.90
- HSL [2]: 1.17
- PPAR gamma [2]: 1.66
- TG [2]: 1.33
- aP2 [2]: 0.90

Substance: 327934 (antisense eG*eG*eT*eA*e[5mC]*eA*eA*eT*e[5mC]*eA*eA*e[5mC]*eG*eG*eT*e[5mC]*eG*eA*eT*eG*eG*eT) [compound 327934]
- Glut4 [2]: 1.52
- HSL [2]: 1.97
- PPAR gamma [2]: 1.54
- TG [2]: 1.43
- aP2 [2]: 1.50
